What was measured:
Assay in all cases: cells
Set-up in all cases: species or system NCI human tumour cell line panel
[1] = tested on: UO-31; settings: Homo sapiens, UO-31; growth inhibition (GI%), single dose
[2] = tested on: SR; settings: Homo sapiens, SR; growth inhibition (GI%), single dose
[3] = tested on: HS 578T; settings: Homo sapiens, Hs-578T; growth inhibition (GI%), single dose
[4] = tested on: HCT-15; settings: Homo sapiens, HCT-15; growth inhibition (GI%), single dose
[5] = tested on: UACC-257; settings: Homo sapiens, UACC-257; growth inhibition (GI%), single dose
[6] = tested on: HOP-92; settings: Homo sapiens, HOP-92; growth inhibition (GI%), single dose
[7] = tested on: RPMI-8226; settings: Homo sapiens, RPMI-8226; growth inhibition (GI%), single dose
[8] = tested on: LOX IMVI; settings: Homo sapiens, LOX IMVI; growth inhibition (GI%), single dose
[9] = tested on: T-47D; settings: Homo sapiens, T47D; growth inhibition (GI%), single dose
[10] = tested on: HOP-62; settings: Homo sapiens, HOP-62; growth inhibition (GI%), single dose
[11] = tested on: EKVX; settings: Homo sapiens, EKVX; growth inhibition (GI%), single dose
[12] = tested on: MCF7; settings: Homo sapiens, MCF7; growth inhibition (GI%), single dose
[13] = tested on: SF-539; settings: Homo sapiens, SF-539; growth inhibition (GI%), single dose
[14] = tested on: HL-60(TB); settings: Homo sapiens, HL-60; growth inhibition (GI%), single dose
[15] = tested on: PC-3; settings: Homo sapiens, PC-3; growth inhibition (GI%), single dose
[16] = tested on: NCI-H226; settings: Homo sapiens, NCI-H226; growth inhibition (GI%), single dose
[17] = tested on: SK-OV-3; settings: Homo sapiens, SK-OV-3; growth inhibition (GI%), single dose
[18] = tested on: CCRF-CEM; settings: Homo sapiens, CCRF-CEM; growth inhibition (GI%), single dose
[19] = tested on: SN12C; settings: Homo sapiens, SN12C; growth inhibition (GI%), single dose
[20] = tested on: HCT-116; settings: Homo sapiens, HCT-116; growth inhibition (GI%), single dose
[21] = tested on: M14; settings: Homo sapiens, M14; growth inhibition (GI%), single dose
[22] = tested on: NCI-H322M; settings: Homo sapiens, NCI-H322M; growth inhibition (GI%), single dose
[23] = tested on: SF-295; settings: Homo sapiens, SF-295; growth inhibition (GI%), single dose
[24] = tested on: A498; settings: Homo sapiens, A498; growth inhibition (GI%), single dose
[25] = tested on: A549/ATCC; settings: Homo sapiens, A549; growth inhibition (GI%), single dose
[26] = tested on: MOLT-4; settings: Homo sapiens, MOLT-4; growth inhibition (GI%), single dose
[27] = tested on: MDA-MB-468; settings: Homo sapiens, MDA-MB-468; growth inhibition (GI%), single dose
[28] = tested on: UACC-62; settings: Homo sapiens, UACC-62; growth inhibition (GI%), single dose
[29] = tested on: BT-549; settings: Homo sapiens, BT-549; growth inhibition (GI%), single dose
[30] = tested on: SF-268; settings: Homo sapiens, SF-268; growth inhibition (GI%), single dose

In the case of `N#Cc1nnn(-c2ccc(S(N)(=O)=O)cc2)c1NC(=O)CCl` [compound 5, 5], the inhibition at 10 µM [1] is reported as 13.5%, the inhibition at 10 µM [2] is reported as 4.1% and the inhibition at 10 µM [3] is reported as 99.8%. The inhibition at 10 µM [4] was 4.1%, the inhibition at 10 µM [5] was 11.1% and the inhibition at 10 µM [6] was 3.9%. The inhibition at 10 µM [7] was 8.7%, the inhibition at 10 µM [8] was 5.5% and the inhibition at 10 µM [9] was 4.8%. For the same compound, the inhibition at 10 µM [10] was 7.9%, the inhibition at 10 µM [11] was 8.6% and the inhibition at 10 µM [12] was 9.1%. It also gave an inhibition at 10 µM [13] of 1.3%, an inhibition at 10 µM [14] of 22.5% and an inhibition at 10 µM [15] of 10.3%. It also gave an inhibition at 10 µM [16] of 4.6%, an inhibition at 10 µM [17] of 3.5% and an inhibition at 10 µM [18] of 11.3%. The inhibition at 10 µM [19] was 11.8%, the inhibition at 10 µM [20] was 5.4% and the inhibition at 10 µM [21] was 4.7%. For the same compound, the inhibition at 10 µM [22] was 6.6%, the inhibition at 10 µM [23] was 1.8% and the inhibition at 10 µM [24] was 8.6%. For the same compound, the inhibition at 10 µM [25] was 7.2%, the inhibition at 10 µM [26] was 7.7% and the inhibition at 10 µM [27] was 1.3%. The inhibition at 10 µM [28] was 3.4%, the inhibition at 10 µM [29] was 3.1% and the inhibition at 10 µM [30] was 2.5%.

Reference: paper PMC6171417, “Carbonic anhydrase inhibition with a series of novel benzenesulfonamide-triazole conjugates” (Journal of Enzyme Inhibition and Medicinal Chemistry, 2018)
